# Test results published in patent publication EP0046712A1, “Fluorinated diaminobutane derivatives” (MERRELL TORAUDE ET COMPAGNIE, priority 1980, dated 1982).
# Where two headings read alike, the source gives them in different places.
# Columns and labels:
# Assay type in all cases: in vivo
# [1] = system: clonic seizures induced by an i.v. challenge of (+)-bicuculline; assay: Protection of mice against clonic seizures induced by i.v. (+)-bicuculline; settings: for ED50: Mus musculus, ip, single dose, protection against bicuculline-induced clonic seizures
# [2] = Toxicity (weight loss and deaths) in mice after daily i.p. dosing for four days; settings: four consecutive days, observed for up to 12 days; for Morality (After treatment) / mortality at 288 h: deaths per 5 mice; for mortality at 288 h: mouse, in vivo, ip, read-out: Morality (After treatment) (converted)
# Description: (§1) A group of 10 male albino CDI mice from Charles Riner, France, is given an i.p. injection of the test compound in aqueous solution daily for four consecutive days. Half of the animals are killed by decapitation 24 hours after the last dose of the test compound. The other half of the animals are observed for up to 12 days for toxicity (as indicated by weight loss and deaths). Control animals receive an injection of the vehicle only.
# [3] = molecular target: T1, GABA-T (Mus musculus, UniProt P61922); assay: GABA-T activity in brain of mice after daily i.p. dosing for four days; settings: ip, four consecutive days, 24 hours after the last dose; for inhibition at 5 mg/kg: daily dose 5 mg/kg i.p.; for inhibition at 10 mg/kg: daily dose 10 mg/kg i.p.
# T1 construct: The brains are removed from the dead mice and are divided into two portions by sagittal section; from tissue; host or cells: brain of male albino CD1 mice dosed i.p. for four days
# Description: as §1
# (§2) The brains are removed from the dead mice and are divided into two portions by sagittal section. One half is used for the measurement of GABA-T activity while the other half is used for measuring GABA content. The GABA-T activity is measured using known methods as dessribed by M.Jung et al., J. Neurochem., 28, 717 (1977) and 29, 797 (1977). GABA content is measured by perchloric acid or trichloroacetic acid extracts using an amino acid analyzer equiped with a fluorescene detector.
# [4] = system: GABA concentration in the brain; assay: GABA content in brain of mice after daily i.p. dosing for four days; settings: four consecutive days, 24 hours after the last dose
# Description: as §1, §2
# T1 sequence (P61922 29-500): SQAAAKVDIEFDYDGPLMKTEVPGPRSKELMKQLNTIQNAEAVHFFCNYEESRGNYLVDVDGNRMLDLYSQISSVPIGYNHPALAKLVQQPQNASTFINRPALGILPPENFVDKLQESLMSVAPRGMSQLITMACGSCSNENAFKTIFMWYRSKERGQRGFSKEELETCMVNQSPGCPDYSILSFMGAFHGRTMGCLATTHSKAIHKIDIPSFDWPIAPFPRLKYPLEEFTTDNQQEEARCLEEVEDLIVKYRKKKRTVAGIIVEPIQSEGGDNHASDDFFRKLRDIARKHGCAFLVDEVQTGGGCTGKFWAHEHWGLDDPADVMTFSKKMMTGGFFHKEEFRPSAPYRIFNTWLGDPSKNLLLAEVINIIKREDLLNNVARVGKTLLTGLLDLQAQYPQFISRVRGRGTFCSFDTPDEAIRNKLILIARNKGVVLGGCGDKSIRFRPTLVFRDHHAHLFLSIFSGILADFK
compound,measurement,setting,value
"NCCC(N)CF (stereo not drawn) [MFDB, 1-fluoro-2,4-diaminobutane]",ED50,[1],65 mg/kg
same,% of Animals Blocked,[1]; single dose 42 mg/kg i.p.,20%
same,% of Animals Blocked,[1]; single dose 51 mg/kg i.p.,40%
same,% of Animals Blocked,[1]; single dose 59 mg/kg i.p.,50%
same,% of Animals Blocked,[1]; single dose 68 mg/kg i.p.,55%
same,% of Animals Blocked,[1]; single dose 84 mg/kg i.p.,60%
same,% of Animals Blocked,[1]; single dose 100 mg/kg i.p.,60%
same,Morality (After treatment),[2]; daily dose 5 mg/kg i.p.,0/5
same,Weight Loss,[2]; daily dose 5 mg/kg i.p.,0%
same,Morality (After treatment),[2]; daily dose 10 mg/kg i.p.,0/5
same,Weight Loss,[2]; daily dose 10 mg/kg i.p.,0%
same,mortality at 288 h,[2]; daily dose 25 mg/kg i.p.,40%
same,mortality at 288 h,[2]; daily dose 50 mg/kg i.p.,60%
same,inhibition at 5 mg/kg,[3],39.7%
same,inhibition at 10 mg/kg,[3],49.8%
same,inhibition at 25 mg/kg,[3]; daily dose 25 mg/kg i.p.,74%
same,inhibition at 50 mg/kg,[3]; daily dose 50 mg/kg i.p.,79%
same,GABA content elevation,[4]; daily dose 5 mg/kg i.p.,190%
same,GABA content elevation,[4]; daily dose 10 mg/kg i.p.,200%
same,GABA content elevation,[4]; daily dose 25 mg/kg i.p.,470%
same,GABA content elevation,[4]; daily dose 50 mg/kg i.p.,465%
"NCCC(N)C(F)F (stereo not drawn) [DFDB, 1,1-difluoro-2,4-diaminobutane]",ED50,[1],4.2 mg/kg
same,% of Animals Blocked,[1]; single dose 3 mg/kg i.p.,20%
same,% of Animals Blocked,[1]; single dose 4 mg/kg i.p.,45%
same,% of Animals Blocked,[1]; single dose 6 mg/kg i.p.,90%
same,% of Animals Blocked,[1]; single dose 8 mg/kg i.p.,95%
same,Morality (After treatment),[2]; daily dose 2 mg/kg i.p.,0/5
same,Weight Loss,[2]; daily dose 2 mg/kg i.p.,0%
same,Morality (After treatment),[2]; daily dose 5 mg/kg i.p.,0/5
same,Weight Loss,[2]; daily dose 5 mg/kg i.p.,0%
same,mortality at 288 h,[2]; daily dose 10 mg/kg i.p.,60%
same,mortality at 288 h,[2]; daily dose 20 mg/kg i.p.,100%
same,inhibition at 2 mg/kg,[3]; daily dose 2 mg/kg i.p.,69.5%
same,inhibition at 5 mg/kg,[3],71.4%
same,inhibition at 10 mg/kg,[3],81%
same,inhibition at 20 mg/kg,[3]; daily dose 20 mg/kg i.p.,96.7%
same,GABA content elevation,[4]; daily dose 5 mg/kg i.p.,200%
same,GABA content elevation,[4]; daily dose 10 mg/kg i.p.,275%
same,GABA content elevation,[4]; daily dose 20 mg/kg i.p.,465%
